Strand notation (5' to 3'): a small letter for the sugar, then the base; units joined by * are phosphorothioate-linked, units joined directly phosphodiester-linked; [ ] holds rarer units or linkages, { } end groups; capitals alone tell only the bases. k = constrained ethyl (cEt); [5mC] = 5-methylcytosine; d = 2'-deoxy (DNA)

The text below walks through data of US11214803B2, “Modulators of YAP1 expression” (Ionis Pharmaceuticals, Inc., priority 2019, dated 2022).

The subject of the first series is Yap1 mRNA. Nature of the series: Antisense inhibition of human Yap1 in A-431 cells by cEt gapmers, single dose (Example 4, RTS4814). The series is classed as cell-based. Conditions: Table 14; A-431 cells, 5,000 cells per well, free uptake, 2,000 nM, approximately 48 hours; RTS4814; normalized to RIBOGREEN; Yap1 mRNA relative to untreated control; * = targets amplicon region of primer probe set. In outline:
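Values are % UTC: Yap1 mRNA by quantitative RT-PCR, normalized to RIBOGREEN total RNA. Cells were exposed ~48 h to 2,000 nM oligonucleotide without transfection. Oligonucleotides were 16-nucleoside gapmers with three cEt nucleosides per wing, ten-deoxy gap, P=S linkages throughout.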
In the case of “1075904 (kG*kT*kA*dT*dA*dG*dG*dA*dT*d[5mC]*dT*dA*d[5mC]*kT*kA*kA; antisense) [Compound 1075904]”, the “YAP1 (% UTC)” value came out at 51 % UTC.

“1075936 (k[5mC]*kT*kT*dA*dT*dA*dT*dT*d[5mC]*dT*d[5mC]*dT*d[5mC]*k[5mC]*kG*kA; antisense) [Compound 1075936]”: the “YAP1 (% UTC)” value came to 49 % UTC. Still for that read-out and setting: under “1075968 (kT*kA*kT*dT*dT*dA*dA*dG*d[5mC]*d[5mC]*dA*dA*dA*k[5mC]*k[5mC]*kG; antisense) [Compound 1075968]” stands 5 % UTC.

Still in this series, the particulars now being: Table 15; A-431 cells, 5,000 cells per well, free uptake, 2,000 nM, approximately 48 hours; RTS4814; normalized to RIBOGREEN; Yap1 mRNA relative to untreated control; * = targets amplicon region of primer probe set.
As for “1075873 (k[5mC]*kT*kT*dG*dA*dA*dT*dA*d[5mC]*dT*dA*d[5mC]*dA*k[5mC]*k[5mC]*kA; antisense) [Compound 1075873]”, the “YAP1 (% UTC)” value is 16 % UTC. The same measure, in the same setting: under “1075905 (k[5mC]*k[5mC]*kT*dG*dA*dA*d[5mC]*dA*d[5mC]*dA*dG*dG*dA*kG*kT*kA; antisense) [Compound 1075905]” stands 43 % UTC; under “1075937 (kA*k[5mC]*kT*dT*dA*dT*dA*dT*dT*d[5mC]*dT*d[5mC]*dT*k[5mC]*k[5mC]*kG; antisense) [Compound 1075937]”, 36 % UTC. Same read-out and setting: under “1075969 (kG*kT*kA*dT*dT*dT*dA*dA*dG*d[5mC]*d[5mC]*dA*dA*kA*k[5mC]*k[5mC]; antisense) [Compound 1075969]” stands 11 % UTC.

Still in this series, the particulars now being: Table 16; A-431 cells, 5,000 cells per well, free uptake, 2,000 nM, approximately 48 hours; RTS4814; normalized to RIBOGREEN; Yap1 mRNA relative to untreated control cells.
With “1075874 (k[5mC]*kT*kT*dA*dA*d[5mC]*dA*dA*d[5mC]*d[5mC]*d[5mC]*dT*dA*k[5mC]*kG*kA; antisense) [Compound 1075874]”, the “YAP1 (% UTC)” value was 113 % UTC. On the same count and under the same terms, under “1075906 (k[5mC]*k[5mC]*kT*d[5mC]*dA*dA*dT*dA*d[5mC]*dA*dG*dA*dT*kG*kA*kA; antisense) [Compound 1075906]” stands 39 % UTC; under “1075938 (kG*kA*kA*dT*dA*dT*dA*dT*dG*dG*dG*dT*dT*kT*k[5mC]*kA; antisense) [Compound 1075938]”, 55 % UTC; under “1075970 (kG*k[5mC]*kT*dT*dA*dA*dA*dA*dG*dG*dA*d[5mC]*dA*kG*kT*kA; antisense) [Compound 1075970]”, 34 % UTC.

Staying with this series, now noted: Table 17; A-431 cells, 5,000 cells per well, free uptake, 2,000 nM, approximately 48 hours; RTS4814; normalized to RIBOGREEN; Yap1 mRNA relative to untreated control cells.
For the substance “1075875 (kA*k[5mC]*kT*dT*dA*dA*d[5mC]*dA*dA*d[5mC]*d[5mC]*d[5mC]*dT*kA*k[5mC]*kG; antisense) [Compound 1075875]”, the “YAP1 (% UTC)” value is 72 % UTC. Same read-out and setting: under “1075907 (kA*kA*kT*dT*dA*d[5mC]*dT*dA*d[5mC]*dT*dG*dG*d[5mC]*k[5mC]*kA*kT; antisense) [Compound 1075907]” stands 55 % UTC. For “1075939 (k[5mC]*kT*kT*dG*dA*dA*dT*dA*dT*dA*dT*dG*dG*kG*kT*kT; antisense) [Compound 1075939]”, the “YAP1 (% UTC)” value is reported as 6 % UTC.

The series is the same for the next values; noted with them: Yap1 mRNA remaining as percent of untreated control; 3-10-3 cEt gapmers; A-431 cells; Table 36.
As to “1075894 (antisense k[5mC]*kT*k[5mC]*dG*dA*dA*dA*dG*d[5mC]*dT*dG*dG*dG*k[5mC]*k[5mC]*k[5mC]) [compound 1075894]”, the “YAP1 (% UTC)” value stood at 100 % UTC. Still for that read-out and setting: then “1075926 (antisense kG*kT*kA*dG*dA*dA*d[5mC]*d[5mC]*dT*dA*dT*dA*dT*kT*kA*kT) [compound 1075926]”, with 25 % UTC; and “1075958 (k[5mC]*kA*kT*dT*dA*dT*dG*dA*d[5mC]*dA*dT*dT*d[5mC]*k[5mC]*k[5mC]*k[5mC]; antisense) [compound 1075958]”, with 12 % UTC.

The same series, now with this note: Yap1 mRNA remaining as percent of untreated control; 3-10-3 cEt gapmers; A-431 cells; Table 37.
For the substance “1075895 (antisense kA*k[5mC]*kT*d[5mC]*dG*dA*dA*dA*dG*d[5mC]*dT*dG*dG*kG*k[5mC]*k[5mC]) [compound 1075895]”, the “YAP1 (% UTC)” value is reported as 38 % UTC. For “1075927 (antisense kG*k[5mC]*kT*dT*dA*dA*dA*dA*dT*d[5mC]*dA*dT*dG*kT*kA*kG) [compound 1075927]”, the “YAP1 (% UTC)” value came out at 32 % UTC. As for “1075959 (kG*kA*kT*dT*dA*dT*dT*dA*dT*dT*dG*d[5mC]*dA*kG*k[5mC]*kT; antisense) [compound 1075959]”, the “YAP1 (% UTC)” value amounted to 15 % UTC.
